According to publication PMC12040169 (PLOS Biology, 2025):

Assay: in vitro
Details: human, hela cells, % viability

Compound	viability at 28.5 h, 10 µM [%]
O=C(O)Cc1ccc(NC(=O)CN2C(=O)c3ccccc3C2=O)cc1 [CBK268562]	104
O=C(O)c1cc(NC(=O)C2CC2)cc(C(=O)O)c1 [CBK268564]	94.3
Cc1ccc([N+](=O)[O-])c(OCCN2CCN(Cc3ccccc3)CC2)c1 [CBK268568G]	99.2
Cc1ccc(C(=O)NCCC(=O)Nc2ccccc2C)cc1 [CBK268569]	103
Cc1ccc(SC(C)C(=O)Nn2cnnc2)cc1 (stereo not shown) [CBK268570]	93.3
O=C(O)COc1ccc(NC(=O)Cc2ccc([N+](=O)[O-])cc2)cc1 [CBK268573]	104
O=C(NCCSCc1c(F)cccc1Cl)Nc1cccc(Cl)c1 [CBK268574]	98.6
Brc1c(OCCNCCN2CCOCC2)ccc2ccccc12 [CBK268576G]	115
O=C(Nc1ccc(NC(=O)c2cc3ccccc3o2)cc1)c1ccc(-c2cccc([N+](=O)[O-])c2)o1 [CBK268579]	86.8
Cc1ccc(OCc2nnc(SCC(=O)c3cccc([N+](=O)[O-])c3)n2C)cc1 [CBK268580]	86.9
Cc1ccc(SCCNCCN2CCOCC2)cc1 [CBK268581G]	104
CCN1CCN(c2ccc(NC(=S)NC(=O)c3ccccc3Br)cc2)CC1 [CBK268583]	102
CN(Cc1ccccc1)C(=O)CCNS(=O)(=O)c1ccccc1 [CBK268585]	103
CN(Cc1ccccc1)C(=O)CNS(=O)(=O)c1ccc([N+](=O)[O-])cc1 [CBK268586]	107
Cc1nnc2sc(-c3ccc(CNC(=S)NC(=O)c4ccccc4[N+](=O)[O-])cc3)nn12 [CBK268588]	84.6
Cc1ccc(S(=O)(=O)Cc2ccc(C(=O)Nc3cccc(-c4cnc5ccccc5n4)c3)cc2)cc1 [CBK268589]	89.3
Cc1ccccc1OCCCNCCN1CCOCC1 [CBK268590C]	106

Compound	viability at 28.5 h, 10 µM [%]
COc1c(C(=O)Nc2ccc(CN3CCOCC3)cc2)cc2ccccc2c1Br [CBK268593]	103
CC(C(=O)Nc1ccc2c(c1)OCO2)N(c1ccc(Cl)cc1)S(C)(=O)=O (stereo not shown) [CBK268595]	89.5
CCN1CCN(c2c(Cl)cccc2NC(=O)c2ccc(-c3cccc([N+](=O)[O-])c3)o2)CC1 [CBK268596]	86.4
CN(CC(=O)Nn1cnnc1)S(=O)(=O)c1ccc(Br)cc1 [CBK268597]	85.9
COc1cc(NC(=O)c2ccc(-c3cc4ccccc4oc3=O)cc2)ccc1NC(=O)C(C)C [CBK268601]	103
CS(=O)(=O)N1CCN(c2ccc(NC(=O)c3ccc(-c4cccc([N+](=O)[O-])c4)o3)cc2)CC1 [CBK268602]	98.6
Clc1ccc(SCCCNCCN2CCOCC2)cc1 [CBK268603C]	90.3
Cc1ccccc1OC(C)C(=O)Nc1nnc[nH]1 (stereo not shown) [CBK268605]	85.6
O=C(Nc1ccccc1C(=O)N1CCCC1)c1ccccc1CCc1ccccc1 [CBK268608]	104
Cc1cc(OCc2nnc(SCC(=O)N3CCN(c4ccccc4)CC3)n2C)ccc1Cl [CBK268611]	104
O=C(Nc1ccc2oc(-c3cccnc3)nc2c1)c1cccc(-c2cc3ccccc3oc2=O)c1 [CBK268612]	89.3
O=C(CN1C(=O)c2ccccc2C1=O)Nc1cccc(-c2cnc3ccccc3n2)c1 [CBK268614]	115
O=C(Nc1nnc[nH]1)c1ccccc1CCc1ccccc1 [CBK268616]	95.9
Cc1ccccc1OC(C)C(=O)Nn1cnnc1 (stereo not shown) [CBK268619]	96.2
O=C(CCN1C(=O)c2cccc([N+](=O)[O-])c2C1=O)Nc1cccc(-c2cnc3ccccc3n2)c1 [CBK268620]	104
CC(=O)Nc1ccccc1NC(=O)c1ccccc1CCc1ccccc1 [CBK268621]	97.1
O=C(Nc1ccc(N2CCN(Cc3ccccc3)CC2)cc1)c1ccc(-c2ccccc2)cc1 [CBK268622]	109
